Assay results taken from patent US20050107394A1, “Novel use of selective pde5 inhibitors” (priority 2001, published 2005).

Test system: rabbits
Experiment: Lung damage after inhaled bleomycin (characterisation of the model)
Assay type: in vivo, rabbit
Description: Healthy rabbits of both sexes were pretreated orally with a gyrase inhibitor (Baytril®) for one week. Ten animals pretreated in this way were not treated with bleomyin and served as control, and, on the day of exposure, the others were anaesthetized with a Ketanest®/Rompun® mixture, intubated intratracheally and ventilated mechanically. An ultrasonic nebulizer (MMAD 2.5 μm) was used to administer by inhalation exactly 1.8 U/kg of bodyweight of bleomycin under volume-controlled ventilation. After 4, 8, 16, 24, 32 and 64 days (in each case n≧5) post exposure, the animals were again anaesthetized, provided with an arterial access (right carotid artery) and underwent bodyweight-adapted ventilation via a tracheostomy in a volume-controlled method. The arterial pO2 and pCO2, and the static compliance of the lung were measured (by recording the intrathoracic pressure and with slow inflation/deflation manoeuvres). Subsequently, the lungs of these animals were dissected and perfused with a Krebs Hensefeit buffer. Under these conditions, the capillary filtraton coefficient (cfc) was then found from the weight gain of the organ after increasing the pulmonary venous pressure by 7.5 mmHg, and the peak ventilation pressure was found. After completion of these measurements, the left main bronchus was ligated in the end-inspiratory position and a bronchoalveolar lavage (BAL) was performed on the right lung. Subsequently, the large vessels and airways of the right lung were dissected off and the organ was homogenized. The left lung was perfusion-fixed with 4% formalin solution while maintaining a pressure gradient of 25 cm H2O and was then stored in 4% formalin until embedded. Firstly, the cells were removed from the BAL, counted and differentiated via a Papenheim stain. The cell-free BAL supernatant was then aliquoted and submitted to further analysis of the surfactant and coagulation properties and a determination of the matrix metallo proteinases (MMPs) and their inhibitors (TIMPs) and of soluble collagen. Bronchoalveolar deposition of 1.8 U/kg of bodyweight of bleomycin led initially to development of an ARDS-like event, with a massive restriction of gas exchange (paO2/FiO2 of >500 mmHg in the controls reduced to ˜110 mmHg on day 4), ground-glass opacities over all sections of the lung in the HRCT and an increase of about 5-fold in the capillary filtration coefficient (cfc). In the later phase of bleomycin-induced lung damage there was then development of pronounced fibrosis which could be confirmed on the basis of the increase in soluble collagen in the BAL and the hydroxyproline in the tissue, on the basis of the histological specimens and of the HRCT findings. […] Consistent with this, a pronounced increase in the extracellular matrix and an alveolar and also interstitial ingress of fibroblasts was observable in the histological sections. Besides the homogeneously distributed zones of fibrosis there were also thin hyperdistended sections of lung with a honeycomb appearance.

For bleomycin, the “concentration of soluble collagen in the BAL” value (after 64 days) was 7000 ± 2200 ng/mL, the paO2/FiO2 (day 4 after 1.8 U/kg bleomycin by inhalation, controls >500 mmHg) was roughly 110 mmHg and the “concentration of soluble collagen in the BAL (maximum)” value (day 16 after bleomycin, controls 1.1±0.4) was 38300 ± 12500 ng/mL. For the same substance, the “capillary filtration coefficient (cfc), increase” value (early phase after 1.8 U/kg bleomycin) was “about 5 fold” and the “hydroxyproline content of the tissue” value (from day 16 onwards) was “approximately doubled”.
